Reference: PMC12096669, “Structural isomerisation affects the antitubercular activity of adamantyl-isoxyl adducts” (Journal of Enzyme Inhibition and Medicinal Chemistry, 2025)
Converted amounts (≈) assume the structure as drawn.

Tested on: Mtb mc^27902 pMV261
Experiment: not given
Assay type: cell-based, Mycobacterium tuberculosis
Details: not given
For CC(C)CCOc1ccc(NC(=S)Nc2ccc(OCCC(C)C)cc2)cc1 [ISO, 4,4′-diisoamyloxydiphenylthiourea], the “TDM and glucose monomycolate levels (TLC)” value was “decrease in TDM and glucose monomycolate” and the “effect on mycolic acid biosynthesis (FAMEs/MAMEs, TLC/autoradiography)” value was “mycolate depletion was observed in both the cell wall-bound and whole cell analysis”.

Same assay, conditions: at the highest concentrations; […]
For CC(C)CCOc1ccc(NC(=S)Nc2ccc(OCCC(C)C)cc2)cc1 [ISO, 4,4′-diisoamyloxydiphenylthiourea], the “TMM levels (TLC)” value was “not observed”.

Tested on: Mtb mc^27902 pMV261
Experiment: microbe, parasite or virus in culture
Assay type: cell-based
Details: Mycobacterium tuberculosis; mc^27902 pMV261; REMA; read-out: Mtb MIC95
For CC(C)CCOc1ccc(NC(=S)Nc2ccc(OCCC(C)C)cc2)cc1 [ISO, 4,4′-diisoamyloxydiphenylthiourea], the MIC was 0.2 µg/mL.

Same assay, conditions: Mycobacterium tuberculosis; values used for the SI, in brackets; […]; read-out: MIC95
For CC(C)CCOc1ccc(NC(=S)Nc2ccc(OCCC(C)C)cc2)cc1 [ISO, 4,4′-diisoamyloxydiphenylthiourea], the MIC was 0.2 µg/mL.

Same assay, conditions: Mycobacterium tuberculosis; values used for the SI; […]; read-out: MIC95
With CC(C)CCOc1ccc(NC(=S)Nc2ccc(OCCC(C)C)cc2)cc1 [ISO, 4,4′-diisoamyloxydiphenylthiourea] the MIC was 0.49 µM.

Tested on: AC10 hybrid adult ventricular cardiomyocytes
Experiment: MTS cytotoxicity assay, cardiomyocytes
Assay type: cell-based
Details: Homo sapiens, AC10 cardiac, 96 h, read-out: MTS percentage survival @ 100 µM
In the case of CC(C)CCOc1ccc(NC(=S)Nc2ccc(OCCC(C)C)cc2)cc1 [ISO, 4,4′-diisoamyloxydiphenylthiourea], the viability at 100 µM is reported as 38.9 ± 13.9%.

Tested on: P. aeruginosa DSM 19880
Experiment: Non-mycobacterial REMA assay
Assay type: cell-based
Details: Pseudomonas aeruginosa, DSM19880, read-out: Minimum inhibitory concentration 95%
For CC(C)CCOc1ccc(NC(=S)Nc2ccc(OCCC(C)C)cc2)cc1 [ISO, 4,4′-diisoamyloxydiphenylthiourea], the MIC was over 32 µg/mL.

Tested on: S. aureus NCTC 2981
Experiment: Non-mycobacterial REMA assay
Assay type: cell-based
Details: Staphylococcus aureus, NCTC2981, read-out: Minimum inhibitory concentration 95%
Molecule CC(C)CCOc1ccc(NC(=S)Nc2ccc(OCCC(C)C)cc2)cc1 [ISO, 4,4′-diisoamyloxydiphenylthiourea] has an MIC of over 32 µg/mL.

Tested on: E. faecalis NCTC 775
Experiment: Non-mycobacterial REMA assay
Assay type: cell-based
Details: Enterococcus faecalis, NCTC775, read-out: Minimum inhibitory concentration 95%
CC(C)CCOc1ccc(NC(=S)Nc2ccc(OCCC(C)C)cc2)cc1 [ISO, 4,4′-diisoamyloxydiphenylthiourea] gave an MIC of over 32 µg/mL.

Tested on: S. pyogenes NCTC 8198
Experiment: Non-mycobacterial REMA assay
Assay type: cell-based
Details: Streptococcus pyogenes, NCTC8198, read-out: Minimum inhibitory concentration 95%
CC(C)CCOc1ccc(NC(=S)Nc2ccc(OCCC(C)C)cc2)cc1 [ISO, 4,4′-diisoamyloxydiphenylthiourea] showed an MIC of over 32 µg/mL.

Tested on: B. cereus NCTC 7464
Experiment: Non-mycobacterial REMA assay
Assay type: cell-based
Details: Bacillus cereus, NCTC7464, read-out: Minimum inhibitory concentration 95%
For CC(C)CCOc1ccc(NC(=S)Nc2ccc(OCCC(C)C)cc2)cc1 [ISO, 4,4′-diisoamyloxydiphenylthiourea], the MIC was over 32 µg/mL.

Tested on: M. bovis BCG
Experiment: not given
Details: microplate alamar blue assay; cited from earlier work
For CC(C)CCOc1ccc(NC(=S)Nc2ccc(OCCC(C)C)cc2)cc1 [ISO, 4,4′-diisoamyloxydiphenylthiourea], the MIC is given as 3.0 µg/mL (≈ 7.49 µM).

Tested on: E. faecium NCTC 7171
Experiment: Non-mycobacterial REMA assay
Assay type: cell-based
Details: Enterococcus faecium, NCTC7171, read-out: Minimum inhibitory concentration 95%
Work on CC(C)CCOc1ccc(NC(=S)Nc2ccc(OCCC(C)C)cc2)cc1 [ISO, 4,4′-diisoamyloxydiphenylthiourea] yielded an MIC of over 32 µg/mL.

Tested on: K. pneumoniae NCTC 9633
Experiment: Non-mycobacterial REMA assay
Assay type: cell-based
Details: Klebsiella pneumoniae, NCTC9633, read-out: Minimum inhibitory concentration 95%
For CC(C)CCOc1ccc(NC(=S)Nc2ccc(OCCC(C)C)cc2)cc1 [ISO, 4,4′-diisoamyloxydiphenylthiourea], the MIC was over 32 µg/mL.

Tested on: tuberculosis patients
Experiment: not given
Set-up: method as in PMID 5535617
Details: monotherapy; after an 8-week regimen; cited from earlier work
For CC(C)CCOc1ccc(NC(=S)Nc2ccc(OCCC(C)C)cc2)cc1 [ISO, 4,4′-diisoamyloxydiphenylthiourea], the “patients testing sputum negative” value is given as 25%.

Tested on: RAW264.7 murine macrophage cells
Experiment: cells
Assay type: cell-based
Details: Mus musculus, RAW264.7, 96 h, RAW264.7 macrophage; 100 µM; 96 h; read-out: MTS percentage survival @ 100 µM
In the case of CC(C)CCOc1ccc(NC(=S)Nc2ccc(OCCC(C)C)cc2)cc1 [ISO, 4,4′-diisoamyloxydiphenylthiourea], the viability at 100 µM is reported as 34.5%.

Same assay, conditions: Mus musculus; RAW264.7 macrophages; 0 to 100 µM; read-out: IC50 (cell viability, MTS assay)
With CC(C)CCOc1ccc(NC(=S)Nc2ccc(OCCC(C)C)cc2)cc1 [ISO, 4,4′-diisoamyloxydiphenylthiourea] the IC50 was 18.8 µM.

Same assay, conditions: from RAW264.7 IC50 and Mtb MIC95
For CC(C)CCOc1ccc(NC(=S)Nc2ccc(OCCC(C)C)cc2)cc1 [ISO, 4,4′-diisoamyloxydiphenylthiourea], the “selectivity index (SI)” value was 38.

Tested on: M. bovis BCG containing the pVVdesA3 overexpression plasmid
Experiment: not given
Set-up: method as in PMID 14559907
Details: M. bovis BCG with pVVdesA3 overexpression plasmid; microplate alamar blue assay; cited from earlier work
For CC(C)CCOc1ccc(NC(=S)Nc2ccc(OCCC(C)C)cc2)cc1 [ISO, 4,4′-diisoamyloxydiphenylthiourea], the MIC is given as 6.0 µg/mL (≈ 15 µM).

Tested on: E. coli K12
Experiment: Non-mycobacterial REMA assay
Assay type: cell-based
Details: Escherichia coli, read-out: Minimum inhibitory concentration 95%
Description: (§1) Bacterial minimum inhibition concentrations (MIC) were determined using the Resazurin Microtiter Assay (REMA) method according to Palomino et al.[28] Stock solutions of the tested compounds were prepared in sterile dimethyl sulfoxide (DMSO), then diluted in 7H9OPALPen^1Cyc^10(Kan^25) to obtain a final drug concentration range of 32–0.032 μg/mL. A suspension of the test Mycobacterium was cultured in 7H9OPALPen^1Cyc^10(Kan^25) containing 0.05% v/v Tween^80 for one week at 37 °C, 5% CO2. The bacterial suspension was adjusted to 0.5 McFarland and diluted in 7H9OPALPen^1Cyc^10(Kan^25) 1:25. 100 μL of the inoculum was added to each well of a 96-well microplate together with 100 μL of the compound titration. The plate was incubated at 37 °C, 5% CO2. After 5 days, 10.5 μL 0.1% (w/v) sterile resazurin (solubilised in sterile PBS containing 0.02% v/v Tween^80) was added. Reduced resazurin was detected using fluorescence (Ex/Em 530/590 nm) in a FLUOstar Optima, BMG Labtech. All titre measurements were plotted in SigmaPlot™ and 4-parameter logistic (4PL) model regressions conducted. The relative MIC95 of each curve was calculated and averaged (Table 1). Testing was performed in duplicate with two independent biological repeats. […] Though, for these cultures, dilutions were performed at 1:125 prior to inoculation of the plate and incubation for 4 h (Supplementary Table 3). Known antitubercular agents used in this study were rifampicin (RIF), isoniazid (INH), ISO, EMB, ethionamide (ETH), linezolid (LZD), delamanid (DEL) and moxifloxacin (MOX).
Work on CC(C)CCOc1ccc(NC(=S)Nc2ccc(OCCC(C)C)cc2)cc1 [ISO, 4,4′-diisoamyloxydiphenylthiourea] yielded an MIC of over 32 µg/mL.

Tested on: S. enterica NCTC 6754
Experiment: Non-mycobacterial REMA assay
Assay type: cell-based
Details: Salmonella enterica, NCTC6754, read-out: Minimum inhibitory concentration 95%
Description: as §1
For CC(C)CCOc1ccc(NC(=S)Nc2ccc(OCCC(C)C)cc2)cc1 [ISO, 4,4′-diisoamyloxydiphenylthiourea], the MIC was over 32 µg/mL.

Tested on: Mtb mc^27902 pMV261
Experiment: EtBr accumulation assay
Assay type: cell-based, Mycobacterium tuberculosis
Details: compound at ½ the MIC; absence or presence of glucose; 60 min
With CC(C)CCOc1ccc(NC(=S)Nc2ccc(OCCC(C)C)cc2)cc1 [ISO, 4,4′-diisoamyloxydiphenylthiourea] the “accumulation of EtBr” value was “increased accumulation of EtBr”.

Tested on: HepG2 human liver cancer cell line
Experiment: MTS cytotoxicity assay, liver cells
Assay type: cell-based
Details: 96 h, read-out: MTS percentage survival @ 100 µM
For CC(C)CCOc1ccc(NC(=S)Nc2ccc(OCCC(C)C)cc2)cc1 [ISO, 4,4′-diisoamyloxydiphenylthiourea], the viability at 100 µM was 95.4 ± 4.3%.

Tested on: S. agalactiae NCTC 8181
Experiment: Non-mycobacterial REMA assay
Assay type: cell-based
Details: Streptococcus agalactiae, NCTC8181, read-out: Minimum inhibitory concentration 95%
For CC(C)CCOc1ccc(NC(=S)Nc2ccc(OCCC(C)C)cc2)cc1 [ISO, 4,4′-diisoamyloxydiphenylthiourea], the MIC was over 32 µg/mL.

Tested on: E. cloacae NCTC 10005
Experiment: Non-mycobacterial REMA assay
Assay type: cell-based
Details: Enterobacter cloacae, NCTC10005, read-out: Minimum inhibitory concentration 95%
In the case of CC(C)CCOc1ccc(NC(=S)Nc2ccc(OCCC(C)C)cc2)cc1 [ISO, 4,4′-diisoamyloxydiphenylthiourea], the MIC is reported as over 32 µg/mL.

Tested on: A. baumannii NCTC 12156
Experiment: Non-mycobacterial REMA assay
Assay type: cell-based
Details: Acinetobacter baumannii, NCTC12156, read-out: Minimum inhibitory concentration 95%
CC(C)CCOc1ccc(NC(=S)Nc2ccc(OCCC(C)C)cc2)cc1 [ISO, 4,4′-diisoamyloxydiphenylthiourea] showed an MIC of over 32 µg/mL.
